Measurements taken from publication PMC10285738, “Identification of macrocyclic peptides which activate bacterial cylindrical proteases” (RSC Medicinal Chemistry, 2023).
Starred links: 1 amine or outer side, 2 acyl side, 3 side chain; linkers in the order of their positions; H or OH if unused. Positions of bridges follow the written chain, without caps; N, C: chain ends. Non-standard residues stand in square brackets, D forms with d. Residues, ends and D or L forms follow the SMILES beside them. Phe(3,5-F2) = N[C@@H](Cc1cc(F)cc(F)c1)C(=O)O; CH2COCH2 = O=C(C[*:1])C[*:2]

Tests used:
[1] = two-component Cys/Cys stapling: bis-thiol-Michael addition to 4,6-divinylpyrimidine bearing N-methylglycine (constraint 1 = A), 1.1 equiv; TCEP 1.1 equiv added if the peptide had oxidised; conditions: the molecule shown is the open-chain precursor, 100 mM phosphate buffer pH 7.4 with DMSO from peptide and staple stocks, 2.8 mM, 22.0 °C, 2 steps
[2] = two-component Cys/Cys stapling: bis-thioether alkylation with 1,3-dichloroacetone (B), 1.1 equiv; TCEP 1.1 equiv added if the peptide had oxidised; conditions: the molecule shown is the open-chain precursor, 100 mM phosphate buffer pH 7.4 with DMSO (peptide stock) and MeCN (staple stock), 2.7 mM, 22.0 °C, 2 steps
[3] = target: T1, Sa.ClpP (Staphylococcus aureus, UniProt Q2G036); assay: Thermal shift assay (differential scanning fluorimetry); assay type: binding; conditions: S. aureus ClpP 5 µM, ligand 200 µM, HEPES 100 mM pH 7, NaCl 150 mM, sypro orange 5x, 30-90 °C in 0.5 °C increments; mean ± SD of duplicates of at least two independent experiments
T1 construct: Strep-tag (C); made in house; host or cells: E. coli SG1146a (lacks endogenous ClpP)
T1 sequence (Q2G036 whole entry): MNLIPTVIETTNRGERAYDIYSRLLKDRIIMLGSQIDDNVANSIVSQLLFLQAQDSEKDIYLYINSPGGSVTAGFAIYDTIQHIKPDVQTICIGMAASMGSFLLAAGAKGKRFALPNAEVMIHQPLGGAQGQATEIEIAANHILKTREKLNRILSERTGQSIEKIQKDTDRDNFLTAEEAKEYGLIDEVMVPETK
From the text: All concentrations are given as final concentrations. […]
real-time qPCR (Bio-Rad CF X96).
SD of duplicates of at least two independent experiments.
equilibrated Superdex 200 Increase 10/300 GL column (Cytiva). […]

In the case of `C=Cc1cc(CCSC[C@H](NC(C)=O)C(=O)NCC(=O)N[C@H](C(=O)NCC(=O)N[C@@H](C)C(=O)NCC(=O)N[C@@H](CS)C(N)=O)[C@@H](C)CC)nc(N(C)CC(=O)O)n1` [Ac-Cys-Gly-Ile-Gly-Ala-Gly-Cys-NH2], the ring closure, yield over several steps ([1]; 30-membered ring) is reported as 90.6%.

Compound `CC[C@H](C)[C@H](NC(=O)CNC(=O)[C@H](CSCC(=O)CCl)NC(C)=O)C(=O)NCC(=O)N[C@@H](C)C(=O)NCC(=O)N[C@@H](CS)C(N)=O` [Ac-Cys-Gly-Ile-Gly-Ala-Gly-Cys-NH2] has a ring closure, yield over several steps ([2]; 26-membered ring) of 18.4%.

In the case of `C=Cc1cc(CCSC[C@H](NC(C)=O)C(=O)NCC(=O)N[C@H](C(=O)NCC(=O)N[C@H](Cc2ccccc2)C(=O)NCC(=O)N[C@@H](CS)C(N)=O)[C@@H](C)CC)nc(N(C)CC(=O)O)n1` [Ac-Cys-Gly-Ile-Gly-D-Phe-Gly-Cys-NH2], the ring closure, yield over several steps ([1]; 30-membered ring) is reported as 61%.

Compound `CC[C@H](C)[C@H](NC(=O)CNC(=O)[C@H](CSCC(=O)CCl)NC(C)=O)C(=O)NCC(=O)N[C@H](Cc1ccccc1)C(=O)NCC(=O)N[C@@H](CS)C(N)=O` [Ac-Cys-Gly-Ile-Gly-D-Phe-Gly-Cys-NH2] has a ring closure, yield over several steps ([2]; 26-membered ring) of 46.6%.

`C=Cc1cc(CCSC[C@H](NC(C)=O)C(=O)NCC(=O)N[C@H](C(=O)NCC(=O)N[C@@H](Cc2cc(F)cc(F)c2)C(=O)NCC(=O)N[C@@H](CS)C(N)=O)[C@@H](C)CC)nc(N(C)CC(=O)O)n1` [Ac-Cys-Gly-Ile-Gly-Phe(3,5-F2)-Gly-Cys-NH2] showed a ring closure, yield over several steps ([1]; 30-membered ring) of 14.1%.

`CC[C@H](C)[C@H](NC(=O)CNC(=O)[C@H](CSCC(=O)CCl)NC(C)=O)C(=O)NCC(=O)N[C@@H](Cc1cc(F)cc(F)c1)C(=O)NCC(=O)N[C@@H](CS)C(N)=O` [Ac-Cys-Gly-Ile-Gly-Phe(3,5-F2)-Gly-Cys-NH2] showed a ring closure, yield over several steps ([2]; 26-membered ring) of 43.3%.

Work on `C=Cc1cc(CCSC[C@H](NC(C)=O)C(=O)NCC(=O)N[C@H](C(=O)NCC(=O)N[C@@H](Cc2ccccc2)C(=O)NCC(=O)N[C@@H](C)C(=O)N[C@@H](CS)C(N)=O)[C@@H](C)CC)nc(N(C)CC(=O)O)n1` [Ac-Cys-Gly-Ile-Gly-Phe-Gly-Ala-Cys-NH2] yielded a ring closure, yield over several steps ([1]; 33-membered ring) of 46.2%.

`CC[C@H](C)[C@H](NC(=O)CNC(=O)[C@H](CSCC(=O)CCl)NC(C)=O)C(=O)NCC(=O)N[C@@H](Cc1ccccc1)C(=O)NCC(=O)N[C@@H](C)C(=O)N[C@@H](CS)C(N)=O` [Ac-Cys-Gly-Ile-Gly-Phe-Gly-Ala-Cys-NH2] showed a ring closure, yield over several steps ([2]; 29-membered ring) of 48.3%.

With `C=Cc1cc(CCSC[C@H](NC(C)=O)C(=O)NCC(=O)N[C@H](C(=O)NCC(=O)N[C@@H](Cc2ccccc2)C(=O)NCC(=O)N[C@@H](C)C(=O)N[C@H](C(=O)N[C@@H](CS)C(N)=O)[C@@H](C)O)[C@@H](C)CC)nc(N(C)CC(=O)O)n1` [Ac-Cys-Gly-Ile-Gly-Phe-Gly-Ala-Thr-Cys-NH2] the ring closure, yield over several steps ([1]; 36-membered ring) was 34.3%.

`CC[C@H](C)[C@H](NC(=O)CNC(=O)[C@H](CSCC(=O)CCl)NC(C)=O)C(=O)NCC(=O)N[C@@H](Cc1ccccc1)C(=O)NCC(=O)N[C@@H](C)C(=O)N[C@H](C(=O)N[C@@H](CS)C(N)=O)[C@@H](C)O` [Ac-Cys-Gly-Ile-Gly-Phe-Gly-Ala-Thr-Cys-NH2] showed a ring closure, yield over several steps ([2]; 32-membered ring) of 19%.

`C=Cc1cc(CCSC[C@H](NC(C)=O)C(=O)NCC(=O)N[C@H](C(=O)NCC(=O)N[C@@H](Cc2ccccc2)C(=O)NCC(=O)N[C@@H](CS)C(N)=O)[C@@H](C)CC)nc(N(C)CC(=O)O)n1` [Ac-Cys-Gly-Ile-Gly-Phe-Gly-Cys-NH2] showed a ring closure, yield over several steps ([1]; 30-membered ring) of 6.8%.

For `CC[C@H](C)[C@H](NC(=O)CNC(=O)[C@H](CSCC(=O)CCl)NC(C)=O)C(=O)NCC(=O)N[C@@H](Cc1ccccc1)C(=O)NCC(=O)N[C@@H](CS)C(N)=O` [Ac-Cys-Gly-Ile-Gly-Phe-Gly-Cys-NH2], the ring closure, yield over several steps ([2]; 26-membered ring) was 27.3%.

Work on `C=Cc1cc(CCSC[C@H](NC(C)=O)C(=O)N[C@H](C(=O)NCC(=O)N[C@@H](Cc2ccccc2)C(=O)NCC(=O)N[C@@H](C)C(=O)N[C@@H](CS)C(N)=O)[C@@H](C)CC)nc(N(C)CC(=O)O)n1` [Ac-Cys-Ile-Gly-Phe-Gly-Ala-Cys-NH2] yielded a ring closure, yield over several steps ([1]; 30-membered ring) of 25.7%.

`CC[C@H](C)[C@H](NC(=O)[C@H](CSCC(=O)CCl)NC(C)=O)C(=O)NCC(=O)N[C@@H](Cc1ccccc1)C(=O)NCC(=O)N[C@@H](C)C(=O)N[C@@H](CS)C(N)=O` [Ac-Cys-Ile-Gly-Phe-Gly-Ala-Cys-NH2] gave a ring closure, yield over several steps ([2]; 26-membered ring) of 13.5%.

For `C=Cc1cc(CCSC[C@H](NC(C)=O)C(=O)N[C@H](C(=O)NCC(=O)N[C@@H](Cc2ccccc2)C(=O)NCC(=O)N[C@@H](C)C(=O)N[C@H](C(=O)N[C@@H](CS)C(N)=O)[C@@H](C)O)[C@@H](C)CC)nc(N(C)CC(=O)O)n1` [Ac-Cys-Ile-Gly-Phe-Gly-Ala-Thr-Cys-NH2], the ring closure, yield over several steps ([1]; 33-membered ring) was 20.5%.

With `CC[C@H](C)[C@H](NC(=O)[C@H](CSCC(=O)CCl)NC(C)=O)C(=O)NCC(=O)N[C@@H](Cc1ccccc1)C(=O)NCC(=O)N[C@@H](C)C(=O)N[C@H](C(=O)N[C@@H](CS)C(N)=O)[C@@H](C)O` [Ac-Cys-Ile-Gly-Phe-Gly-Ala-Thr-Cys-NH2] the ring closure, yield over several steps ([2]; 29-membered ring) was 55.3%.

For `C=Cc1cc(CCSC[C@H](NC(C)=O)C(=O)N[C@H](C(=O)NCC(=O)N[C@@H](Cc2ccccc2)C(=O)NCC(=O)N[C@@H](CS)C(N)=O)[C@@H](C)CC)nc(N(C)CC(=O)O)n1` [Ac-Cys-Ile-Gly-Phe-Gly-Cys-NH2], the ring closure, yield over several steps ([1]; 27-membered ring) was 75.6%.

In the case of `CC[C@H](C)[C@@H]1NC(=O)CNC(=O)[C@@H](NC(C)=O)CSCC(=O)CSC[C@@H](C(N)=O)NC(=O)CNC(=O)[C@H](Cc2cc(F)cc(F)c2)NC(=O)CNC1=O` [P9-B] (Ac-CGIG[Phe(3,5-F2)]GC-NH2; linker 1-7 via CH2COCH2), the “apparent increase in melting temperature of Sa.ClpP” value [3] is reported as 1.1 ± 0.2 °C.
